In ChEMBL document CHEMBL1130536 (Bioorg Med Chem Lett, 1997) one finds Ki, ED50 and Protection data, which are given here for 13 compounds.

The target in test [1] is Glutamate receptor ionotropic AMPA (Homo sapiens, UniProt P42261+P42262+P42263+P48058).
Description: In vitro binding affinity against AMPA receptor by [3H]AMPA displacement.
Test [2] concerns Mus musculus. The experiment in a line: Mean effective dose that protects 50% of the mice against AMPA-induced lethality when it administered ip, 60 minutes prior to application of AMPA icv. In kind it is functional.
Test [3] deals with Glutamate NMDA receptor. The experiment in a line: Binding affinity against glycine binding site of NMDA receptor using [3H]glycine. In kind it is protein-complex assay, Rattus norvegicus.
Test [4] is filed under the species Mus musculus. The test is described as follows: The compound was tested for Mean effective dose which protects the mice against seizures induced by Maximum electroshock (MES). In kind it is functional.
The species entered for test [5] is Mus musculus. The experiment in a line: Percent protection of the mice against seizures induced by Maximum electroshock, by the compound was determined. The class given is functional.
The species named for test [6] is Mus musculus. The experiment in a line: The compound was tested for Mean effective dose which protects the mice against seizures induced by Maximum electroshock. The class given is functional.

A value given as a limit tells only on which side of the number the result lay.

In the case of `CCOC(=O)Cn1c(=O)c(=O)[nH]c2cc([N+](=O)[O-])c(-n3ccc(C(=O)O)c3)cc21`, the affinity in test [1], expressed as Ki, was 0.215 µM.
For `O=C(O)Cn1c(=O)c(=O)[nH]c2cc(C(F)(F)F)c(-n3ccc(C(=O)O)c3)cc21`, the ED50 worked out at 2.3 mg/kg in test [2] and 2.4 mg/kg in test [4]. Besides, the Ki in test [3] was > 30 µM; in test [1], 0.066 µM.
For `O=C(O)Cn1c(=O)c(=O)[nH]c2cc(C(F)(F)F)c(-n3ccc(CNC(=O)Nc4ccc(C(=O)O)cc4)c3)cc21`, the ED50 in test [2] was found to be 0.27 mg/kg; in test [4], 1.4 mg/kg. For the same compound, the values for the Ki in test [3] and in test [1] were > 30 µM and 0.007 µM, respectively.
In test [2], `O=C(O)c1ccn(-c2cc3nc(O)c(O)nc3cc2[N+](=O)[O-])c1` displayed an ED50 of 17 mg/kg. Moreover, the Ki in test [3] is > 30 µM; in test [1], 0.06 µM.
As to `CCOC(=O)c1ccc(NC(=O)NCc2ccn(-c3cc4nc(O)c(O)nc4cc3C(F)(F)F)c2)cc1`, the Ki in test [1] is 0.45 µM.
`NS(=O)(=O)c1cccc2c1c([N+](=O)[O-])cc1nc(O)c(O)nc12` [NBQX] displayed a Protection in test [5] of 31%. The compound also showed a Ki in test [3] of 33 µM. This compound registered an ED50 in test [6] of 46 mg/kg.
With `O=C(O)Cn1c(=O)c(=O)[nH]c2cc([N+](=O)[O-])c(-n3ccc(C(=O)O)c3)cc21`, the ED50 in test [2] was 1.4 mg/kg; in test [4], 2.4 mg/kg. Moreover, the Ki in test [3] is > 30 µM.
On to `CCOC(=O)c1ccc(NC(=O)NCc2ccn(-c3cc4c(cc3C(F)(F)F)[nH]c(=O)c(=O)n4CC(=O)O)c2)cc1`, for which the ED50 in test [2] is 0.8 mg/kg. The Ki in test [3] is > 30 µM; in test [1], 0.004 µM.
Regarding `O=C(O)Cn1c(=O)c(=O)[nH]c2cc(C(F)(F)F)c(-n3ccc(CNC(=O)Nc4cccc(C(=O)O)c4)c3)cc21`, the ED50 stood at 3.5 mg/kg in test [2] and 13.5 mg/kg in test [4]. Besides, the Ki in test [3] is > 30 µM; in test [1] it was 0.02 µM.
`O=C(NCc1ccn(-c2cc3nc(O)c(O)nc3cc2C(F)(F)F)c1)Nc1ccc(C(=O)O)cc1`: the Protection in test [5] came out at 0%. In addition, the ED50 is ~11 mg/kg in test [2] and 46 mg/kg in test [6]. In addition, the Ki in test [3] is > 30 µM; in test [1], 0.054 µM.
`O=c1[nH]c2cc(-n3ccnc3)c([N+](=O)[O-])cc2[nH]c1=O` [YM-90K] came in with an ED50 in test [2] of 13 mg/kg. In test [3], the Ki was 7.4 µM.
Take `CCOC(=O)c1cccc(NC(=O)NCc2ccn(-c3cc4c(cc3C(F)(F)F)[nH]c(=O)c(=O)n4CC(=O)O)c2)c1`: the ED50 stood at 2.9 mg/kg in test [2] and 28.5 mg/kg in test [4]. Also, the Ki in test [3] was > 30 µM; in test [1], 0.004 µM.
Take `CCOC(=O)Cn1c(=O)c(=O)[nH]c2cc(C(F)(F)F)c(-n3ccc(C(=O)O)c3)cc21`: the Ki is > 30 µM in test [3] and 1.5 µM in test [1].

For orientation: Ki means a measure of affinity in units of concentration, obtained from inhibition or displacement. The ED50 is the dose that gives a 50% effect, or the effect in half of the subjects.
